Where two headings read alike, the source gives them in different places.
Legend:
[1] = tested on: native HEK293 cells; test: Whole-cell patch-clamp control in native HEK293 cells without transfection; format: cell-based, human; conditions: prolintane 30 µM, 5-HT 10 µM (Fig. S3)
Experimental: One day prior to recording, either native HEK293 cells or HEK293 cells stably expressing monoamine transporters were seeded at low density onto PDL-coated 35 mm dishes. Patch-clamp experiments were conducted at a holding potential of −60 mV, with substrate-induced currents recorded at room temperature (20–24 °C) using an […] amplifier and pClamp 11.2 software (MDS Analytical Technologies). During recordings, cells were continuously superfused via a DAD-12 perfusion system and an 8-tube manifold (ALA Scientific Instruments), delivering an external solution composed of 140 mM NaCl, 2.5 mM CaCl2, 3 mM KCl, 2 mM MgCl2, 20 mM glucose, and 10 mM HEPES, with pH adjusted to 7.3 using NaOH. The intracellular pipette solution, designed to mimic physiological ionic conditions, contained 133 mM potassium gluconate, 5.9 mM NaCl, 1 mM CaCl2, 0.7 mM MgCl2, 10 mM HEPES, and 10 mM EGTA, with pH set to 7.2 using KOH. Currents were filtered at 1 kHz and digitized at 10 kHz via a Digidata 1550 digitizer (MDS Analytical Technologies), followed by analysis in Clampfit 10.2 (Molecular Devices). Substance-induced currents were normalized to the current elicited by a saturating concentration of 5-HT (10 μM) of the same cell. Holding currents were subtracted, and a 50 Hz digital Gaussian low-pass filter was applied to the traces for further analysis.

[2] = target: rSERT (Rattus norvegicus, UniProt P31652); format: cell-based; design: expressed in transfected cells; conditions: for Mean diff, rSERT efflux ± Mon (Šídák's multiple comparisons test): drug alone vs drug + monensin (Mon)
rSERT, sequence (P31652 whole entry, the tested form may be a part): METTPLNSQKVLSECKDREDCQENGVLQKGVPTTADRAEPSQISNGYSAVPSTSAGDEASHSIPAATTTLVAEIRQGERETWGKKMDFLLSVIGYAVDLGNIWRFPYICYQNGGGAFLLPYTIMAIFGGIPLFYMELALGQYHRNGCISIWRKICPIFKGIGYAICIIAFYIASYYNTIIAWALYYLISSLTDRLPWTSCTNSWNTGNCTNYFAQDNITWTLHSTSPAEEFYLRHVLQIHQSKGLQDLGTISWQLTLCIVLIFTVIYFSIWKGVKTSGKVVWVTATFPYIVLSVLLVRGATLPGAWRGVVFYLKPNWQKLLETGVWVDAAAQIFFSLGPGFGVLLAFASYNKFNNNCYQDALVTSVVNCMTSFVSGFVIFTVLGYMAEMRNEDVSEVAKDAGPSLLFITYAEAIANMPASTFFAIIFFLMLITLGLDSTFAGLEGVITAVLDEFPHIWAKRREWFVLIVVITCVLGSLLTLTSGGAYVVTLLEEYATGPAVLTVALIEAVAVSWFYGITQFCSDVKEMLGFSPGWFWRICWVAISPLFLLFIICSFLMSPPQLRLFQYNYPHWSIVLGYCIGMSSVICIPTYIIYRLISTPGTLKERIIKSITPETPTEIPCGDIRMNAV
Experimental: A day prior to the experiment, HEK293 cells stably expressing hSERT or rat SERT (rSERT) were seeded at a density of 100,000 cells per channel into 6 channel flow ibidi slides (Gräfelfing, Germany). On the day of the experiments, cells were preloaded with 0.1 μM [^3H]5-HT at 37 °C, 5% CO2 for 20 min. Subsequently, the slides were transferred to the superfusion apparatus ([59]). Cells were then washed with KHB for 15 min under a constant flow of 0.5 ml/min. Fractions were collected every 2 min in 8 ml vials containing 2 ml scintillation cocktail. Collection began with three baseline fractions using KHB, followed by four additional basal release fractions with KHB, either with or without 10 μM monensin. […] To assess residual radioactivity within the cells, they were lysed with 1% sodium dodecyl sulfate (SDS), and three final fractions were obtained. The measured tritiated substrate in each fraction was expressed as a percentage of the initial tritiated substrate present at the start of that fraction.
Uptake inhibition data were evaluated by one-way ANOVA followed by Tukey's multiple comparisons test. Release data were analyzed using a two-way ANOVA (batch release) or a mixed-effects model with Geisser-Greenhouse correction (time-dependent traces) employing Šidák correction for comparing differences between compounds with or without the addition of monensin.

CCCC(Cc1ccccc1)N1CCCC1 (stereo not drawn) [Prolintane, 1-(1-phenylpentan-2-yl)pyrrolidine]
current in native HEK293 cells without transfection [1]: do not induce currents | current in native HEK293 cells without transfection ([1]; listed as prolintane): no current could be recorded | Mean diff, rSERT efflux ± Mon (Šídák's multiple comparisons test) ([2]; Row 1 (time fraction)): -0.3272 | Mean diff, rSERT efflux ± Mon (Šídák's multiple comparisons test) ([2]; Row 2 (time fraction)): -0.2896 | Mean diff, rSERT efflux ± Mon (Šídák's multiple comparisons test) ([2]; Row 3 (time fraction)): -0.1547 | Mean diff, rSERT efflux ± Mon (Šídák's multiple comparisons test) ([2]; Row 4 (time fraction)): -0.119 | Mean diff, rSERT efflux ± Mon (Šídák's multiple comparisons test) ([2]; Row 5 (time fraction)): -0.6706 | Mean diff, rSERT efflux ± Mon (Šídák's multiple comparisons test) ([2]; Row 6 (time fraction)): -0.9234 | Mean diff, rSERT efflux ± Mon (Šídák's multiple comparisons test) ([2]; Row 7 (time fraction)): -1.427 | Mean diff, rSERT efflux ± Mon (Šídák's multiple comparisons test) ([2]; Row 8 (time fraction)): -2.621 | Mean diff, rSERT efflux ± Mon (Šídák's multiple comparisons test) ([2]; Row 9 (time fraction)): -2.612 | Mean diff, rSERT efflux ± Mon (Šídák's multiple comparisons test) ([2]; Row 10 (time fraction)): -2.362 | Mean diff, rSERT efflux ± Mon (Šídák's multiple comparisons test) ([2]; Row 11 (time fraction)): -2.416 | Mean diff, rSERT efflux ± Mon (Šídák's multiple comparisons test) ([2]; Row 12 (time fraction)): -2.279 | [3H]5-HT releasing profile in cells expressing rSERT ([2]; superfusion, HEK293 cells, with and without monensin): almost identical pseudo-efflux releasing profile
